Experimental data from US9133255B2, “Products and methods using soy peptides to lower total and LDL cholesterol levels” (SOY LABS, LLC, priority 2006, dated 2015).

What was measured:
[1] = system: Sp1; test: Sp1 level in HepG2 cells, Western blot; format: cell-based; conditions: 10 uM synthetic lunasin
Description: Unlike HMG-CoA reductase, SREBP activation of LDL-receptor by sterol depletion requires increased recruitment of Sp1 co-activator to a site adjacent to SREBP in the promoter/regulatory sequence of LDL-receptor gene (25). […] To test this hypothesis, the level of Sp1 was determined in lunasin-treated growth media and cholesterol-free media by Western analysis using Sp1 antibody, as follows: HepG2 cells (1×10^6) were grown from confluence in DMEM with 10% FBS for 24 hours before growth media was replaced with fresh growth media or cholesterol-free media (to activate SREBP) and treated with, or without 10 uM synthetic lunasin. After 24 hours, total protein was extracted from each treatment and 10 ug protein loaded onto 10% Tris-glycine gels, electroblotted onto nitrocellulose membrane, and immunostained with primary antibodies raised against Sp1 and actin (to show equal loading of proteins). Spot densitometer values were obtained by digital scanning and Un-Scan It software and represent data from one experiment.

[2] = system: HMG-CoA reductase; test: HMG-CoA reductase expression in HepG2 cells, Western blot; format: cell-based; conditions: 10 uM synthetic lunasin 24 h, cholesterol-free media 24 h, densitometry, FIG. 2
Description: (§1) In cell culture of HepG2 liver cells, it is possible to activate SREBP and increase the expression of HMG-CoA reductase and LDL-receptor by removing cholesterol in the growth media. This can be achieved by exposing the cells to serum-free media for 24 hours (31, 32).
(§2) In the first experiment, HepG2 cells (1×10^6) were treated with or without 10 uM synthetic lunasin in DMEM with 10% FBS for 24 hours before growth media was replaced with cholesterol-free media to activate SREBP. After 24 hours, total protein was extracted and 10 ug protein was loaded onto 10% Tris-glycine gels, electroblotted onto nitrocellulose membrane, and immunostained with primary antibodies raised against HMG-CoA reductase and actin (to show equal loading of proteins). Spot densitometer values are obtained by digital scanning and Un-Scan It software, and represent mean and standard deviation of data from three separate experiments.

[3] = system: C3H/T101/2 cells; conditions: cited from earlier work
[4] = target: T1, histone H3 acetylation by PCAF (Homo sapiens, UniProt P68431); test: HAT assay with PCAF, HeLa core histones; format: biochemical; conditions: FIG. 8
T1 construct: The core histones isolated from untreated HeLa cells were used as a negative control; purchased Upstate/Millipore; host or cells: HeLa cells (histones)
Description: A confirmatory experiment to determine the biological activity of digested and undigested LeSC and LeSC+SF was conducted using a different core histone template. This time we used the core histones extracted from HeLa tumor cells. Unlike the chicken erythrocyte cells, core histones from sodium butyrate treated HeLa cells are commercially available (Upstate/Millipore, Piscataway, N.J.), and can be used as a positive control for histone acetylation. The core histones isolated from untreated HeLa cells were used as a negative control (low levels of histone acetylation) and as template for the HAT assay.
The HAT bioactivity assay was conducted using acid extracted core histones from HeLa cells (Upstate/Millipore) as a template (temp (−) control) for the PCAF catalyzed HAT reaction. […] The numbers below the legend indicate relative densitometer readings normalized using immunosignal from the template (temp). […]
LeSC+SF was partially digested by mixing it with freshly prepared pancreatin solution (10 ug/mL of distilled water) in a 1:0.5, (w/w) ratio. […] However, the conditions for the partial digestion of LeSC+SF has to be determined empirically by analyzing digestion products for lunasin content (FIG. 6) and biological activity using the HAT assay (FIG. 8.)

[5] = system: tumorigenic (RWPE-2) prostate cells; conditions: 2 uM lunasin, cited from earlier work
[6] = target: T2, histone H3 acetylation by PCAF (Gallus gallus, UniProt P84229); test: H3 histone acetyltransferase (HAT) assay with PCAF, chicken erythrocyte core histones; format: biochemical; conditions: vs untreated control, FIG. 7
T2 construct: Core histones purified from chicken erythrocyte cells were used as templates in histone acetylase (HAT) reactions; purchased Upstate/Millipore; host or cells: chicken erythrocytes (histones)
Text: The invention further provides an in vitro assay that can be used to screen potential sources of lunasin or analogues, fragments or variants of lunasin for biologically active material useful in the methods of the present invention. In one embodiment of the present invention, core histones purified from acid-extracted proteins of HeLa cells and chicken erythrocyte cells as well as recombinant histone H3 (commercially available from Upstate/Millipore) are used as templates in histone acetylase (HAT) reactions using PCAF histone acetylase enzyme in the presence or absence of lunasin. […] Chemiluminescent signals from antibody complexes can be visualized using standard chemiluminescent reagents and exposed to Kodak BioMAX film, developed and spot densitometer measured by using digital scanner and UN-SCAN-IT software program from Silk Scientific (Orem, Utah).
Biological activity of LeSC (A), LeSC+SF (B), digested LeSC+SF (C), digested LeSC (D), digested soy protein isolate (E) and digested soy concentrate (F) was measured using the H3 histone acetyltransferase (HAT) assay (see Example 8.) Around 100 mg total protein of LeSC, LeSC+SF, soy protein isolate and soy concentrate were digested by mixing pancreatin (Sigma Life Sciences, Saint Louis, Mo.) at 1:1 (w/w) and incubating for 30 min. at 40° C. […]

[7] = target: deacetylated histone H4 (Homo sapiens, UniProt P62805); conditions: cited from earlier work
[8] = system: histone H3 and H4 acetylation; conditions: cited from earlier work
[9] = system: p21/WAF1/Cipi; conditions: NIH 3T3 cells pre-treated 24 hours, eight days after E1A transfection; cited from earlier work
[10] = system: skin tumor; conditions: mice, applied topically, ethanol as delivery system; cited from earlier work
[11] = system: E1A-transfected cells; conditions: cited from earlier work
[12] = system: non-tumorigenic (RWPE-1) prostate cells; conditions: 2 uM lunasin, cited from earlier work
[13] = system: LDL-receptor; test: LDL-receptor expression in HepG2 cells, Western blot; format: cell-based; conditions: 10 uM synthetic lunasin 24 h, cholesterol-free media 24 h, densitometry, FIG. 3
Description: as §1
as §2, with “the second” for “the first”, “media is” for “media was”, “ug proteins” for “ug protein was”, “against LDL-receptor” for “against HMG-CoA reductase”, “values were” for “values are”

[14] = cited from earlier work

Substance: lunasin: natural, synthetically or recombinantly obtained soybean lunasin polypeptide (SEQ ID 2), small subunit of a cotyledon-specific 2S albumin
- further increase of Sp1 levels ([1]; cholesterol-free media, FIG. 4, one experiment): ~60%
- Sp1 levels, lunasin-treated vs control ([1]; growth media, FIG. 4): not significantly different
- reduction of HMG-CoA reductase expression [2]: more than 50%
- reduction of foci formation ([3]; cells pre-treated with lunasin, exposed to DMBA and MCA): 70%
- concentration sufficient to suppress foci formation ([3]; single 24 hour exposure, assays lasted six weeks): 125 nM
- H3 acetylation by PCAF (biological activity), undigested sample [4]: Significant reduction in H3 acetylation
- number of genes up-regulated ([5]; RWPE-2 cells, 24 hours): two
- genes down-regulated ([5]; tumorigenic epithelial cells): No genes were down-regulated
- H3 acetylation by PCAF (biological activity), undigested sample [6]: significant reduction in H3 acetylation
- binding to histones [7]: binds preferentially to deacetylated histone H4
- histone H3 and H4 acetylation [8]: inhibits histone H3 and H4 acetylation
- increase in p21/WAF1/Cipi protein levels [9]: five-fold
- skin tumor formation [10]: reduce skin tumor formation
- apoptosis [11]: induces apoptosis
- number of genes with greater than twofold change in expression ([12]; 24 hours, of 14500 genes, RWPE-1 and RWPE-2 together): 123 genes
- number of genes up-regulated ([12]; RWPE-1 cells, 24 hours): 121 genes
- genes down-regulated ([12]; non-tumorigenic epithelial cells): No genes were down-regulated
- increase of LDL-receptor expression [13]: more than 60%
- water solubility [14]: water soluble
